{
  "source": "patent US20110091540A1",
  "about": "“POLYMERIC COMPOSITIONS AND THEIR METHOD OF USE IN COMBINATION WITH ACTIVE AGENTS” (priority 2007, published 2011)",
  "test": "Clinical trial of Example 11: fecal metal excretion and stool weight",
  "type": "in vivo, human",
  "conditions": "groups receiving mannitol with CLP; passage through the entire gastrointestinal tract",
  "protocol": "For this clinical trial, an open-label, non-randomized, multiple-dose study in eighteen healthy subjects divided into six groups of three subjects in each group was conducted. Subjects were placed into one of six groups on day six, based upon the previous five days of stool weights, so that the average daily stool weight is approximately equal across groups.\nCLP (milled) with and without mannitol (Groups 1, 2, 5 and 6) was in size 00 HPMC capsules that are uncoated. CLP (beads) and mannitol alone were supplied in bottles so that they may put into size 00 HPMC capsules (Groups 3 and 4).\nCLP was administered according to treatment assignment (Groups 1, 2, 3, and 4) in a fasted state, at least one hour prior to each of four meals/snack and administered with water. Subjects were restricted from additional fluids for one hour pre and post dose. For Groups 5 and 6, CLP is administered in a fed state, thirty minutes following the end of a meal and evening snack, administered with water and without any fluid restriction.\nEach sample was individually weighed and the color and consistency of the stool noted. The weights were added together to determine the total fecal weight resulting from each day's intake. The entire weight of stool between the color markers was also totaled separately for both the baseline period and the experimental period. […]",
  "data": [
    {"smiles": "OC[C@@H](O)[C@@H](O)[C@H](O)[C@H](O)CO", "note": "[mannitol]", "values": [
      {"measurement": "Effect of mannitol on fluid removal (stool weight)", "result": "does not increase fluid removal and may decrease fluid removal"}
    ]}
  ]
}
